Data as given in US7935698B2, “Heteroaryl-hydrazone compounds” (Synta Pharmaceuticals Corporation, priority 2003, dated 2011).
pIC50: −log10 of the molar value.

Test system: IL-12 production
Test: Human in vitro assay: inhibition of IL-12 production in stimulated human PBMC or THP-1 cells (sandwich ELISA)
Type: cell-based
Settings: primed with IFNγ and stimulated with LPS or SAC, IL-12 by ELISA
Source text: The biological activities of the compounds of the invention can be evaluated by a number of cell-based assays. One of such assays can be conducted using cells from human peripheral blood mononuclear cells (PBMC) or human monocytic cell line (THP-1). The cells are stimulated with a combination of human interferon-γ (IFNγ) and lipopolysaccharide or a combination of IFNγ and Staphylococcus aureus Cowan I in the presence of a test compound. The level of inhibition of IL-12 production can be measured by determining the amount of p70 by using a sandwich ELISA assay with anti-human IL-12 antibodies. IC50 of the test compound can then be determined. Specifically, PBMC or THP-1 cells are incubated with the test compound. Cell viability was assessed using the bioreduction of MTS [3-(4,5-dimethylthiazol-2-yl)-5-(3-carboxymethoxyphenyl)-2-(4-sulfophenyl)-2H-tetrazolium] (Promega, Madison, Wis.).
Reagents. Staphylococcus aureus Cowan I (SAC) is obtained from Calbiochem (La Jolla, Calif.), and lipopolysaccharide (LPS, Serratia marscencens) is obtained from Sigma (St. Louis, Mo.). Human and mouse recombinant IFNγ are purchased from Boehringer Mannheim (Mannheim, Germany) and Pharmingen (San Diego, Calif.), respectively.
Human In Vitro Assay. Human PBMC were isolated by centrifugation using Ficoll-Paque (Pharmacia Biotech, Uppsala, Sweden) and prepared in RPMI medium supplemented with 10% fetal calf serum (FCS), 100 U/mL penicillin, and 100 μg/mL streptomycin. PBMC were plated in wells of a 96-well plate at a concentration of 5×10^5 cells/well, and primed by adding IFNγ (30 U/mL) for 22 h and stimulated by adding LPS (1 μg/mL), or by adding IFNγ (100 U/mL) and then stimulated by adding SAC (0.01%). A test heteroaryl hydrazone compound was dissolved in DMSO, and added to wells of the 96-well plate. The final DMSO concentration was adjusted to 0.25% in all cultures, including the compound-free control. Human THP-1 cells were plated in wells, primed by adding IFNγ (100 U/mL) for 22 h and stimulated by adding SAC (0.025%) in the presence of different concentrations of the heteroaryl hydrazone compound. Cell-free supernatants were taken 18 h later for measurement of cytokines. Cell viability was assessed using the bioreduction of MTS. Cell survival was estimated by determining the ratio of the absorbance in compound-treated groups versus compound-free control.
The supernatant was assayed for the amount of IL-12p40, IL-12p70, or IL-10 by using a sandwich ELISA with anti-human antibodies, i.e., a Human IL-12 p40 ELISA kit from R&D Systems (Berkeley, Calif.), and a Human IL-12 p70 or IL-10 ELISA kit from Endogen (Cambridge, Mass.). Assays were based on the manufacturer's instructions.
The biological activities of heteroaryl hydrazone compounds were tested on human PBMC or THP-1 cells.

| pIC50 | SMILES |
| --- | --- |
| 8.66 | Cc1cccc(NN=Cc2cc(N3CCOCC3)nc(OCCc3ccccn3)n2)c1 [Compound 1, N-[6-Morpholin-4-yl-2-(2-pyridin-2-yl-ethoxy)-pyrimidin-4-ylmethylene]-N′-m-tolyl-hydrazine] |
| 8.00 | Clc1cccc(NN=Cc2cc(N3CCOCC3)nc(OCCc3ccccn3)n2)c1 [Compound 2, N-(3-Chloro-phenyl)-N′-[6-morpholin-4-yl-2-(2-pyridin-2-yl-ethoxy)-pyrimidin-4-ylmethylene]-hydrazine] |
| 8.66 | COc1cccc(NN=Cc2cc(N3CCOCC3)nc(OCCc3ccccn3)n2)c1 [Compound 3, N-(3-Methoxy-phenyl)-N′-[6-morpholin-4-yl-2-(2-pyridin-2-yl-ethoxy)-pyrimidin-4-ylmethylene]-hydrazine] |
| 8.19 | Cc1ccc(C)c(NN=Cc2cc(N3CCOCC3)nc(OCCc3ccccn3)n2)c1 [Compound 4, N-(2,5-Dimethyl-phenyl)-N′-[6-morpholin-4-yl-2-(2-pyridin-2-yl-ethoxy)-pyrimidin-4-ylmethylene]-hydrazine] |
| 7.40 | Cc1cccc(NN=Cc2cc(OCCc3ccccn3)nc(N3CCOCC3)n2)c1 [Compound 6, N-[2-Morpholin-4-yl-6-(2-pyridin-2-yl-ethoxy)-pyrimidin-4-ylmethylene]-N′-m-tolyl-hydrazine] |
